Results from publication PMC9241644, “Evaluation of Novel Quorum Sensing Inhibitors Targeting Auto-Inducer 2 (AI-2) for the Control of Avian Pathogenic Escherichia coli Infections in Chickens” (Microbiology Spectrum, 2022).

What was measured:
Rif^R APEC O78 [1] = assay: Efficacy of QSIs in APEC-infected chickens (oral gavage pilot); type: in vivo, Escherichia coli; conditions: for Average lesion severity, Lung / Average lesion severity, Liver / Average lesion severity, Airsac / Average lesion severity, Heart / Mortality rate % (Nr.) / Average APEC load, Liver / Average APEC load, Heart / Average APEC load, Kidney / Average APEC load, Lung: Table S1, oral gavage pilot; for Average lesion severity, Lung / Average lesion severity, Liver / Average lesion severity, Airsac / Average lesion severity, Heart: lesion score; for Average lesion severity, Lung: PC 1.25; for Average lesion severity, Liver: PC 1.75; for Average lesion severity, Airsac: PC 2.00; for Average lesion severity, Heart: PC 2.25; for Mortality rate % (Nr.): n = 6/group, 8 DPI, PC 66.6 (4/6); for Average APEC load, Liver: PC 5.95; for Average APEC load, Heart: PC 5.98; for Average APEC load, Kidney: PC 6.81; for Average APEC load, Lung: PC 6.83; for reduction in mortality compared with the PC group / average APEC load reduction in the internal organs (liver, heart, lung, kidney) compared with PC: chickens, QSI oral gavage once daily 5 days, s/c APEC O78 1 × 10^7 CFU/bird; for reduction in mortality compared with the PC group: PC mortality normalized to 100%; for average APEC load reduction in the internal organs (liver, heart, lung, kidney) compared with PC: range over organs
Description: The chicken experiment was carried out using 1-day-old broiler chickens (Mayer Hatchery, OH, USA). Feed and water were given ad libitum. Chickens (n = 6/group) were administered with the QSIs (QSI-1, QSI-2, QSI-5 − 8, QSI-10, ChemBridge, San Diego, CA); previously designated as C1, C2, C5, C6, C7, C8, C10 ([17]) using oral gavage. These compounds were selected based on their high efficacy in in vitro studies and the doses correspond to 30X of the initial in vitro screening concentration ([17]). The QSIs were suspended in dimethyl sulfoxide (DMSO; used as a vehicle) and administered once daily for 5 successive days (starting from day 4 to day 8). The first dose was administered 1 day before the challenge, followed by the second dose on the challenge day (2 h before challenge), followed by three additional doses on subsequent days. Feeders were removed 1 h prior to the treatment and replaced 1 h after the treatment. Chickens were challenged subcutaneously (s/c) on day 5 with Rif^R APEC O78 (1 × 10^7 CFU/bird) in PBS using syringe (27 gauge, 0.5 in.). The challenge dose, which […], was chosen based on preliminary experiments conducted with different infection routes (subcutaneous s/c, intra-tracheal and intra-airsacs) and different doses (10^6, 10^7, and 10^8 CFU/chicken). […] Therefore, we selected this challenge dose and route for evaluation of QSIs in chickens ([34]). The positive (PC; infected with APEC O78 and DMSO treated) and negative (NC; non-infected and non-treated) control groups were included.
(§1) Chickens were monitored for clinical signs for 8 DPI. Any chickens moribund during this period were humanely euthanized and necropsied to determine bacterial load in the internal organs (liver, heart, lung, and kidney). Internal organs were aseptically collected, weighed and suspended in 1× PBS, the amount of PBS added was adjusted based on the organ size to make a suspension, the organ size and amount of PBS added were included in the final calculation of the CFU. The samples were homogenized, serially diluted 10-fold, plated on MacConkey agar (Remel, CA, USA) containing 50 μg/mL rifampicin, and incubated at 37°C for 24 h to determine the CFU/g. Pathological lesions severity in internal organs (pericarditis, perihepatitis, airsacculitis, and lung congestion) was scored as described previously ([21], [59]). At 8 DPI, the remaining chickens were humanely euthanized and necropsied, lesions were scored, and the APEC load was quantified in internal organs as described above.

Rif^R APEC O78 [2] = assay: Comparative efficacy of QSI-5 and SDM in field simulated conditions (built-up floor litter); type: in vivo, Escherichia coli
Excerpt: as §1
To compare the efficacy of QSI-5 with an antibiotic SDM currently used in the field, chickens (n = 70) were raised on built-up floor litter in a field-simulated conditions. One-day-old broiler chickens (Case Farms Ohio Hatchery, OH, USA) were used for conducting the experiment. The optimized dose of QSI-5 (1 mg/L) and the therapeutic dose of SDM (495.323 mg/L) (0.05%) were given in drinking water daily for 7 days (starting from day 5 to day 11 of age). The volume of drinking water needed daily was determined as described above. On day 6, the chickens were infected s/c with Rif^r APEC O78 (5 × 10^6 CFU/chicken, s/c). PC (0.05% DMSO treated and infected) and NC (non-infected and non-treated) control groups were included. The mortality was recorded daily until the end of the experiment (42 days of age: slaughter age). At 8 DPI, half of the chickens from each group were necropsied, lesions were scored, and the APEC load was quantified in the internal organs as described above. The other half of the chickens were raised until day 42 to determine the impact of treatment on the body weight gain and feed intake. To calculate the FCR, body weight was measured once every week and feed intake was recorded every day. On day 42, the remaining chickens were euthanized, body weight was measured and 10 chickens from each group were randomly selected and necropsied, lesions and APEC load were assessed in the internal organs.

[3] = QSI-5 and SDM residue quantification in muscle, kidney and liver (LC-MS); type: in vivo, chickens; conditions: in vivo
Description: The safety of QSI-5 and SDM was assessed by measuring the level of drug residue in the muscle, kidney, and liver using LC-MS (CCIC, MS&P Facility, OSU) as described before ([34]). As described above, chickens were administered with the optimized dose of QSI-5 (1 mg/L) and the therapeutic dose of SDM (495.323 mg/L) (0.05%) in drinking water daily for 7 days (starting from day 5 to day 11 of age). Tissue samples were collected individually from chickens treated with QSI-5 and SDM (five chickens per group) from experimental set up as described for floor trial at 2 DPLT, 5 DPLT, and […] (slaughter age). All samples were weighed and extracted at a 400 mg/mL ratio of tissue in the extraction solution (50:50 H2O: ACN). Samples were homogenized using a probe sonicator 20 times and centrifuged at 13,000 × g for 30 min. Sixty μL of the supernatant was transferred into glass vials and dried in a SpeedVac for 1.5 h, and then resuspended in 120 μL of 25:25:50 H2O:ACN:MeOH. Standard calibration, LC system, mass spectrometer, and drug target monitoring were performed as described above. Calibration standard curves for measuring the accumulation of QSI-5 and SDM in the kidney, liver, and muscle are shown in Fig. S6A and S6B.

Row | SMILES | Average lesion severity, Lung (Rif^R APEC O78 [1]) | Average lesion severity, Liver (Rif^R APEC O78 [1]) | Average lesion severity, Airsac (Rif^R APEC O78 [1]) | Average lesion severity, Heart (Rif^R APEC O78 [1]) | Mortality rate % (Nr.) (Rif^R APEC O78 [1]) | Average APEC load, Liver (Rif^R APEC O78 [1]) | Average APEC load, Heart (Rif^R APEC O78 [1]) | Average APEC load, Kidney (Rif^R APEC O78 [1]) | Average APEC load, Lung (Rif^R APEC O78 [1]) | reduction in mortality compared with the PC group (Rif^R APEC O78 [1]) | further results
1 | COCCN1CCC(CN(Cc2cccnc2)Cc2ccccc2Cl)CC1 [QSI-1] | 0.50 | 2.17 | 1.83 | 3.00 | 50% | 5.30 Log CFU/g of tissue | 5.63 Log CFU/g of tissue | 6.28 Log CFU/g of tissue | 5.92 Log CFU/g of tissue | 25% | average APEC load reduction in the internal organs (liver, heart, lung, kidney) compared with PC (Rif^R APEC O78 [1]): did not reduce the APEC load
2 | Cc1ccccc1N1CCN(C2CCCN(C(=O)c3ccc(F)c(Cl)c3)C2)CC1 (stereo not drawn) [QSI-2] | 0.17 | 1.00 | 0.92 | 1.67 | 33.3% | 4.20 Log CFU/g of tissue | 4.87 Log CFU/g of tissue | 5.07 Log CFU/g of tissue | 5.15 Log CFU/g of tissue | 50% | –
3 | O=[N+]([O-])c1cccc(S(=O)(=O)Nc2ccc(Br)cc2)c1 [QSI-6] | 0.50 | 0.83 | 1.17 | 1.50 | 66.6% | 4.62 Log CFU/g of tissue | 4.87 Log CFU/g of tissue | 5.35 Log CFU/g of tissue | 5.17 Log CFU/g of tissue | did not reduce mortality | –
4 | O=C(CCN1CCN(c2ccccc2F)CC1)Nc1ccc(Br)cc1 [QSI-7] | 0.17 | 1.33 | 1.00 | 1.33 | 66.6% | 5.95 Log CFU/g of tissue | 6.13 Log CFU/g of tissue | 6.13 Log CFU/g of tissue | 6.10 Log CFU/g of tissue | did not reduce mortality | average APEC load reduction in the internal organs (liver, heart, lung, kidney) compared with PC (Rif^R APEC O78 [1]): did not reduce the APEC load
5 | CCc1ccccc1NC1NC(c2c(C)nc3ccccn23)=CS1 (stereo not drawn) [QSI-8] | 0.17 | 0.50 | 0.50 | 0.50 | 33.3% | 3.48 Log CFU/g of tissue | 3.60 Log CFU/g of tissue | 3.65 Log CFU/g of tissue | 4.60 Log CFU/g of tissue | 50% | –
6 | OCCC1CN(C2CCN(c3ccccc3)CC2)CCN1CCCc1ccccc1 (stereo not drawn) [QSI-10] | 0.00 | 0.00 | 0.17 | 0.33 | 16.6% | 2.50 Log CFU/g of tissue | 2.50 Log CFU/g of tissue | 2.47 Log CFU/g of tissue | 3.08 Log CFU/g of tissue | – | –
7 | COc1cc(NS(=O)(=O)c2ccc(N)cc2)nc(OC)n1 [SDM, sulfadimethoxine] | – | – | – | – | – | – | – | – | – | – | Average lesion severity, Lung (Rif^R APEC O78 [2]; Table S3, PC 1.85): 1.17; Average lesion severity, Liver (Rif^R APEC O78 [2]; Table S3, PC 2.52): 2.03; Average lesion severity, Airsac (Rif^R APEC O78 [2]; Table S3, PC 3.36): 2.50; Average lesion severity, Heart (Rif^R APEC O78 [2]; Table S3, PC 3.58): 2.83; Average APEC load, Liver (Rif^R APEC O78 [2]; Table S3, PC 7.24): 5.05 Log CFU/ g of tissue; Average APEC load, Lung (Rif^R APEC O78 [2]; Table S3, PC 7.68): 6.17 Log CFU/ g of tissue; Average APEC load, Kidney (Rif^R APEC O78 [2]; Table S3, PC 7.73): 5.33 Log CFU/ g of tissue; Average APEC load, Heart (Rif^R APEC O78 [2]; Table S3, PC 7.92): 5.69 Log CFU/ g of tissue; Mortality rate % (Nr.) (Rif^R APEC O78 [2]; Table S3, until 42 days of age, QSI-5 (8/63), SDM (19/65), PC 45.6 (31/68)): 29.2%; reduction in mortality compared with the PC group (Rif^R APEC O78 [2]; built-up floor litter, QSI-5 1 mg/L, SDM 495.3 mg/L (0.05%) in drinking water 7 days, s/c APEC O78 5 × 10^6 CFU/chicken): 35.9%; Drug accumulation, Liver (ppm± SD) ([3]; broiler, chicken, 35 DPLT): 0.0 ± 0.0 ppm; Drug accumulation, Muscle (ppm± SD) ([3]; broiler, chicken, 35 DPLT): 0.0 ± 0.0 ppm; Drug accumulation, Kidney (ppm± SD) ([3]; commercial broiler, chicken, 35 DPLT): 0.0 ± 0.0 ppm; residue in any tissues [3]: no detectable residues
